The target of the experiment is T1, human Factor VIIa (Homo sapiens, UniProt P08709).
T1 construct: with about 1% of the total amount in the proteolytically active form factor VIIa; purchased Haematologic Technologies (plasma-purified) or Novo Nordisk (recombinant)
Kind of experiment: Factor VIIa assay (hydrolysis of chromogenic substrate, Ki). The conditions noted are these: several values in one cell = repeat determinations. Format: biochemical.

Molecules are shown by their SMILES. “And” between values parts separate entries of the source, which are not always exact repeats. Identical values can stand only once.

T1 sequence (P08709 213-466 limits assumed): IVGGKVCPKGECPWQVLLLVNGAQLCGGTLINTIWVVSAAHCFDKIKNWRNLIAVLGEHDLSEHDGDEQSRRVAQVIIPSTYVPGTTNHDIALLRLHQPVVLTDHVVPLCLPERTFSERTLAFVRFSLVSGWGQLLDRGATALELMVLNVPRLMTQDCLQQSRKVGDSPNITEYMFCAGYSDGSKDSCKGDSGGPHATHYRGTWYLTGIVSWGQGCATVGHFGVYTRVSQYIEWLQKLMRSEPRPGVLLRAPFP
T1 sequence (P08709 61-212 limits assumed): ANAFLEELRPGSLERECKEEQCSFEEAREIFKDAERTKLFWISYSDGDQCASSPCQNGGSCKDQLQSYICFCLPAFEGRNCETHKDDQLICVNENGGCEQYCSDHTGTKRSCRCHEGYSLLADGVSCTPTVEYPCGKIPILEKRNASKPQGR
T1 sequence (P13726 33-251 partner limits assumed): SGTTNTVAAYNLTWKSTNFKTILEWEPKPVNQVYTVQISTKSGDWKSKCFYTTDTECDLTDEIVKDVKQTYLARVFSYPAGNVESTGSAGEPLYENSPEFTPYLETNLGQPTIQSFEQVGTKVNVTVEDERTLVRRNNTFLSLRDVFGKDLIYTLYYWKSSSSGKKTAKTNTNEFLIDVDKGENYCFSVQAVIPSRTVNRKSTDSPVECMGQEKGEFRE

Turning to `CC[C@H]1CNC(=O)c2cc(NC(C(=O)N3CCC[C@@H]3c3cc(NC(=O)OC)ccc3S(=O)(=O)C(C)C)c3ccc(OC)c(OC)c3)ccc21` (single isomer, unassigned) [Example 18], the Ki – broadly, the dissociation constant of the complex between target and ligand, obtained from inhibition or displacement – is 41 nM and 88 nM.

As for `COc1cc([C@@H](Nc2ccc3c(c2)C(=O)NC3)C(=O)N2CC[C@H](C(=O)O)[C@@H]2c2ccccc2S(=O)(=O)C2CC2)ccc1F` [Example 28, (2R,3S)-2-(2-(cyclopropylsulfonyl)phenyl)-1-((R)-2-(4-fluoro-3-methoxyphenyl)-2-(3-oxoisoindolin-5-ylamino)acetyl)pyrrolidine-3-carboxylic acid], affinity was put at a Ki of 60 nM. This counts as double-digit nanomolar. `COC(=O)Nc1ccc(S(=O)(=O)C2CC2)c([C@H]2CCCN2C(=O)[C@H](Nc2ccc3nc[nH]c(=O)c3c2)c2ccc(F)c(OC)c2)c1` (single isomer, unassigned) [Example 22]: the Ki is < 5 nM and 3.5 nM. `COC(=O)Nc1ccc(S(=O)(=O)C(C)C)c([C@H]2CCCN2C(=O)C(Nc2ccc(F)c3c2CNC3=O)c2ccc(OC)c(OC)c2)c1` (single isomer, unassigned) [Example 6] yielded a Ki greater than 13000 nM.

(Values after patent US8039506B2, “Bicyclic lactam factor VIIa inhibitors useful as anticoagulants” (Bristol-Myers Squibb Company, priority 2006, dated 2011).)
